# From patent US8586628B2, “Use of Propineb as bird repellent” (Bayer Cropscience AG, priority 2009, dated 2013)
# Values joined by “and” are separate entries in the source; they are usually repeats but may differ in a detail not shown here. Identical values can stand only once.
# Test system: pigeon
# Test: Screening experiment with pigeon on the repellency of treated maize seeds (two-bowl choice, treated vs untreated maize)
# Assay type: in vivo
# Conditions: for Food consumption of untreated maize (U), Day 1 / Food consumption of untreated maize (U), Day 2: untreated bowl beside treated bowl; for Mean food consumption of untreated maize per group and per day, day 0 / Mean food consumption of untreated maize per group and per day, day 1 / Mean food consumption of untreated maize per group and per day, day 3 / Food consumption of untreated maize (U), Mean/group / Food consumption of untreated maize (U), Mean/birds: untreated bowl; for Food consumption of untreated maize (U), Mean/group / Food consumption of treated maize (T), Mean/group: mean of 3 pigeons over Day 0-2; for Food consumption of untreated maize (U), Day 0: untreated bowl (40 g) offered beside treated bowl
# Description: Screening Experiment with Pigeon on the Repellency of Maize Seeds Treated with Different Thiram and Propineb Formulations
# 15 singly housed pigeons were acclimated to maize as food source over a couple of days. From day—3 to day—1 they received exclusively untreated maize (40 g/bird). Food consumption was determined (see Table 1 below). All birds accepted maize seed as food. The different groups behaved similarly:
# Food was offered in 2 bowls, one with treated, the other with untreated maize. The position of the two bowls was changed from day to day as well as during the day. Food consumption was again measured (see Table 2 below)
# Group 1 (Aviary 1 to 3): Thiram 160 g/dt
# Group 2 (Aviary 4 to 6): Thiram 80 g/dt
# Group 3 (Aviary 7 to 9): Propineb160 g/dt
# Group 4 (Aviary 10 to 12):Propineb 80 g/dt
# [1] = 80 g/dt group, single pigeon, Day 1
# [2] = 80 g/dt group, mean per bird over Day 0-2
Compound,"Food consumption of untreated maize (U), Day 1 [1]","Food consumption of untreated maize (U), Day 2 (80 g/dt group, single pigeon)","Mean food consumption of untreated maize per group and per day, day 0 (80 g/dt group) [g]","Mean food consumption of untreated maize per group and per day, day 1 (80 g/dt group) [g]","Mean food consumption of untreated maize per group and per day, day 3 (80 g/dt group) [g]","Food consumption of untreated maize (U), Mean/group (80 g/dt group) [g]","Food consumption of untreated maize (U), Mean/birds [2]","Food consumption of untreated maize (U), Day 2 (160 g/dt group, single pigeon)","Mean food consumption of untreated maize per group and per day, day 0 (160 g/dt group) [g]","Mean food consumption of untreated maize per group and per day, day 1 (160 g/dt group) [g]","Mean food consumption of untreated maize per group and per day, day 3 (160 g/dt group) [g]","Food consumption of untreated maize (U), Mean/group (160 g/dt group) [g]","Mean food consumption of treated maize per group and per day, day 0 (maize treated at 80 g/dt) [g]","Mean food consumption of treated maize per group and per day, day 1 (maize treated at 80 g/dt) [g]","Mean food consumption of treated maize per group and per day, day 3 (maize treated at 80 g/dt) [g]","Food consumption of treated maize (T), Mean/group (maize treated at 80 g/dt) [g]","Mean food consumption of treated maize per group and per day, day 0 (maize treated at 160 g/dt) [g]","Mean food consumption of treated maize per group and per day, day 1 (maize treated at 160 g/dt) [g]","Mean food consumption of treated maize per group and per day, day 3 (maize treated at 160 g/dt) [g]","Food consumption of treated maize (T), Mean/group (maize treated at 160 g/dt) [g]",also measured
"CN(C)C(=S)SSC(=S)N(C)C [Thiram, reference compound]",11.8 g and 18.4 g and 18.2 g,14.5 g and 19.3 g and 19.7 g,16.4,16.1,17.8,16.8,13.6 g and 17.8 g and 18.9 g,14.5 g and 23.4 g and 23.0 g,16.9,18.5,20.3,18.6,0.9,0.2,1.1,0.7,6.0,5.3,2.8,4.6,"Food consumption of untreated maize (U), Day 0 (80 g/dt seed treatment group, single pigeon (aviary), Day 0): 14.4 g and 15.8 g and 18.9 g; Food consumption of treated maize (T), Mean/birds (maize treated at 160 g/dt, mean per bird over Day 0-2): 0.0 g"
Propineb,17.5 g and 23.2 g and 20.6 g,25.9 g and 27.5 g and 28.6 g,14.1,20.4,27.3,20.6,20.1 g and 23.6 g and 18.0 g,26.1 g and 19.9 g and 28.3 g,22.6,24.8,24.8,24.4,2.8,2.1,0.0,1.7,0.0,0.6,0.0,0.2,"Food consumption of untreated maize (U), Day 1 (160 g/dt group, single pigeon, Day 1): 24.6 g and 19.5 g and 30.2 g; Food consumption of untreated maize (U), Mean/birds (160 g/dt group, mean per bird over Day 0-2): 24.6 g and 21.3 g and 26.2 g; Food consumption of untreated maize (U), Day 0 (160 g/dt seed treatment group, single pigeon (aviary), Day 0): 23.1 g and 24.6 g and 20.0 g; Bird repellent activity compared with Thiram (compared at the registered rate of Thiram, pigeon, treated maize seed): substantially better activity than Thiram; Food consumption of treated maize (T), Day 1 (maize treated at 80 g/dt, choice with untreated, single pigeon, Day 1): 2.9 g and 1.7 g and 1.8 g; Food consumption of treated maize (T), Day 2 (maize treated at 80 g/dt, choice with untreated, single pigeon): 0.0 g; Food consumption of treated maize (T), Day 0 (maize treated at 160 g/dt, 40 g offered beside 40 g untreated, single pigeon (aviary), Day 0): 0.0 g; Food consumption of treated maize (T), Day 2 (maize treated at 160 g/dt, choice with untreated, single pigeon): 0.0 g"
